SMILES strings stand for the structures. Read-outs that look alike come from different tables or passages of the source.

Results on 21 molecules are retold here after patent US10160762B2, “6-alkyl dihydropyrazolopyrimidinone compounds as PDE2 inhibitors” (Merck Sharp & Dohme Corp., priority 2015, dated 2018).

The test has as its target T1, Rhesus PDE2A3 (Macaca mulatta, UniProt B3VTJ2).
T1 construct: made in house; host or cells: AD293 cells, transient transfection; supernatant of sonicated lysate
T1 sequence (B3VTJ2 1-941): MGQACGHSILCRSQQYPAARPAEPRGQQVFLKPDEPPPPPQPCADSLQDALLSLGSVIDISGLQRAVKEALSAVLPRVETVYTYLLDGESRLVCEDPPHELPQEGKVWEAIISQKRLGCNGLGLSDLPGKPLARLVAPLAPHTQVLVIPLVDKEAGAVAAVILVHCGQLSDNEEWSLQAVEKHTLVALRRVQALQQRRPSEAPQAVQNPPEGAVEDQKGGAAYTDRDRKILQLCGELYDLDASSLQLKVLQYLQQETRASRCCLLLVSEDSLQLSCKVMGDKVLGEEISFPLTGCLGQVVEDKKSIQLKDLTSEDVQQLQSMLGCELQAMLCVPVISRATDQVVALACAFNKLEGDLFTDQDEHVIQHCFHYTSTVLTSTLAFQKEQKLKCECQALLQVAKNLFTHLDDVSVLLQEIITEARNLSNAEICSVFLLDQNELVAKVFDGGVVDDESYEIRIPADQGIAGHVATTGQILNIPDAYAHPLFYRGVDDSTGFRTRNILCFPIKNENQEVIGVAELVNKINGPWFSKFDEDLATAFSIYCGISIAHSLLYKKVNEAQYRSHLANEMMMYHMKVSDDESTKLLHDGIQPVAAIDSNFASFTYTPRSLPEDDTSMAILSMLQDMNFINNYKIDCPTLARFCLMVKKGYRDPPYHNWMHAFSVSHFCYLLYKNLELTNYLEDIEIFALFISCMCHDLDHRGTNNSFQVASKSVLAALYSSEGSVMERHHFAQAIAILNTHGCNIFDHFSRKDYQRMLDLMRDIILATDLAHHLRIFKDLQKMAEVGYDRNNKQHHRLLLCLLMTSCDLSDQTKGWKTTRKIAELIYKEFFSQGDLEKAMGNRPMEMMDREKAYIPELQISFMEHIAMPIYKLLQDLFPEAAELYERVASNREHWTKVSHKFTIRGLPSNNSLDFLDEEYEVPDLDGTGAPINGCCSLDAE
Nature of the test: PDE2 fluorescence polarization (IMAP FP) inhibition assay, rhesus PDE2A3. The test is classed as biochemical, rhesus macaque. As to the method: The activity of the compounds in accordance with the present invention as PDE2 inhibitors may be readily determined using a fluorescence polarization (FP) methodology (Huang, W., et al., J. Biomol Screen, 2002, 7: 215).
The PDE2 inhibitory activity of the compounds of the present invention was determined in accordance with the following experimental method. Rhesus PDE2A3 was amplified from rhesus macaque brain cDNA (Biochain Institute, Hayward, Calif.) using primers based on human PDE2A sequence (accession NM_002599.3) where the forward primer containing a Kozak consensus was 5′-[…]-3′ and the reverse primer was 5′-[…]-3′. Amplification with Easy-A High-Fidelity PCR cloning enzyme (Stratagene, La Jolla, Calif.) was 95° C. for 2 minutes followed by thirty three cycles of 95° C. for 40 seconds, 52° C. for 30 seconds, and 72° C. for 2 minutes 48 seconds. Final extension was 72° C. for 7 minutes. The PCR product was TA cloned into pcDNA3.3-TOPO (Invitrogen, Carlsbad, Calif.) according to standard protocol. A consensus sequence was developed from multiple clones and then deposited into GenBank (EU812167). AD293 cells (Stratagene, La Jolla, Calif.) with 70-80% confluency were transiently transfected with rhesus PDE2A3/pcDNA3.3-TOPO using Lipofectamine 2000 according to manufacturer specifications (Invitrogen, Carlsbad, Calif.). Cells were harvested 48 hours post-transfection and lysed by sonication (setting 3, 10×5 sec pulses) in a buffer containing 20 mM HEPES pH 7.4, 1 mM EDTA and Complete Protease Inhibitor Cocktail Tablets (Roche, Indianapolis, Ind.). Lysate was collected by centrifugation at 75,000×g for 20 minutes at 4° C. and supernatant utilized for evaluation of PDE2 activity. The fluorescence polarization assay for cyclic nucleotide phosphodiesterases was performed using an IMAP® FP kit supplied by Molecular Devices, Sunnyvale, Calif. (product #R8139). […] Assays were performed at room temperature in 384-well microtiter plates with an incubation volume of 20.2 μL. Solutions of test compounds were prepared in DMSO and serially diluted with DMSO to yield 8 μL of each of 10 solutions differing by 3-fold in concentration, at 32 serial dilutions per plate. […] 0% of inhibition is determined by using DMSO (1% final concentrations).
A Labcyte Echo 555 (Labcyte, Sunnyvale, Calif.) is used to dispense 200 nL from each well of the titration plate to the 384 well assay plate. Ten microliters of a solution of enzyme (1/2000 final dilution from aliquots; sufficient to produce 20% substrate conversion) was added to the assay plate. Next 10 uL of a separate solution of the substrate FAM-labeled cAMP (50 nM final concentration product # R7506 from Molecular Devices) and the activator cGMP (1 uM final concentration), prepared in the assay buffer (10 mM Tris HCl, pH 7.2, 10 mM MgCl2, 0.05% NaN3 0.01% Tween-20, and 1 mM DTT) was added to the assay plate and shaken to mix. The reaction is allowed to proceed at room temperature for 60 minutes. A binding solution is then made from the kit components, comprised of 80% Solution A, 20% Solution B and binding reagent at a volume of 1/600 the total binding solution. The enzymatic reaction is stopped by addition of 60 μL of the binding solution to each well of the assay plates and the plates are sealed and shaken for 30 seconds. The plate was incubated at room temperature for at least one hour prior to determining the fluorescence polarization (FP). The parallel and perpendicular fluorescence of each well of the plate was measured using a Tecan Genios Pro plate reader (Tecan, Switzerland) or Perkin Elmer EnVision™ plate reader (Waltham, Mass.). Fluorescence polarization (mP) was calculated from the parallel (S) and perpendicular (P) fluorescence of each sample well and the analogous values for the median control well, containing only substrate (So and Po), using the following equation: Polarization(mP)=1000*(S/So−P/Po)/(S/So+P/Po).
(Fluorescence polarisation rises when a labelled molecule tumbles more slowly, as on binding a larger partner.)

Setting [1] is: Lab B, read-out: Rhesus PDE2 Ki (nM) Lab B.
Setting [2] is: Lab A, read-out: Rhesus PDE2 Ki (nM) Lab A.

As to `Cc1nc2c(c(C)nn2C(C)CNc2ccc(C(F)(F)F)cc2)c(=O)[nH]1` (centres unmarked) [Example 330, 3,6-Dimethyl-1-(1-(4-(trifluoromethyl)phenylamino)propan-2-yl)-1H-pyrazolo[3,4-d]pyrimidin-4(5H)-one], the Ki – broadly, the equilibrium dissociation constant of an inhibitor or competing ligand from its target – under setting [1] was determined as 2410 nM. Same read-out and setting: with `CC(c1ccc(C(F)(F)F)cc1)n1nc(COCc2ccccc2)c2c(=O)[nH]c(C(F)F)nc21` (centres unmarked) [Example 283, 3-((Benzyloxy)methyl)-6-(difluoromethyl)-1-(1-(4-(trifluoromethyl)phenyl)ethyl)-1H-pyrazolo[3,4-d]pyrimidin-4(5H)-one] the figure was 387 nM; with `Cc1nc2c(c(CO)nn2C(c2ccc(C(F)(F)F)cc2)C2(C)CC2)c(=O)[nH]1` (single isomer, unassigned) [Example 25, (S)- or (R)-3-(Hydroxymethyl)-6-methyl-1-((1-methylcyclopropyl)(4-(trifluoromethyl)phenyl)methyl)-1H-pyrazolo[3,4-d]pyrimidin-4(5H)-one], 160 nM; with `Cc1nc2c(c(CO)nn2C(C)c2ccc(S(F)(F)(F)(F)F)cc2)c(=O)[nH]1` (single isomer, unassigned) [Example 76], 330 nM. Same read-out and setting: with `Cc1nc2c(c(CS(C)(=O)=O)nn2C(C)c2ccc(C(F)(F)F)cc2)c(=O)[nH]1` (single isomer, unassigned) [Example 273] the figure was 757 nM. With `Cc1nn(C(C)c2ccc(C(F)(F)F)cc2)c2nc(C3CCOC3)[nH]c(=O)c12` (centres unmarked) [Example 33, 3-Methyl-6-(tetrahydrofuran-3-yl)-1-(1-(4-(trifluoromethyl)phenyl)ethyl)-1H-pyrazolo[3,4-d]pyrimidin-4(5H)-one], the Ki by setting is: under setting [2], 386 nM; under setting [1], 531 nM. In the case of `COc1cccc(Cc2nc3c(c(CF)nn3C(C)c3ccc(C(F)(F)F)cc3)c(=O)[nH]2)c1` (single isomer, unassigned) [Example 220, (R)- or (S)-3-(Fluoromethyl)-6-(3-methoxybenzyl)-1-(1-(4-(trifluoromethyl)phenyl)ethyl)-1H-pyrazolo[3,4-d]pyrimidin-4(5H)-one], the inhibitory constant (Ki) under setting [1] was determined as 189 nM. With `Cc1nc2c(c(CF)nn2C(C)c2ccc(S(F)(F)(F)(F)F)cc2)c(=O)[nH]1` (single isomer, unassigned) [Example 199], under setting [1], the Ki was 210 nM. Same read-out and setting: with `Cc1nc2c(c(C#N)nn2C(C)c2ccc(C(F)(F)F)cc2)c(=O)[nH]1` (single isomer, unassigned) [Example 253] the figure was 703 nM.

Consider `Cc1nc2c(c(C)nn2CC(C)(O)c2ccc(C(F)(F)F)cc2)c(=O)[nH]1` (centres unmarked) [Example 336, 1-(2-Hydroxy-2-(4-(trifluormethyl)phenyl)propyl)-3,6-dimethyl-1H-pyrazolo[4-d]pyrimidin-4(5H)-one], for which the inhibition constant Ki by setting is: under setting [2], over 1000 nM; under setting [1], 7660 nM.

As to `Cc1nc2c(c(CCN)nn2C(C)c2ccc(C(F)(F)F)cc2)c(=O)[nH]1` (centres unmarked) [Example 282, 3-(2-Aminoethyl)-6-methyl-1-(1-(4-(trifluoromethyl)phenyl)ethyl)-1H-pyrazolo[3,4-d]pyrimidin-4(5H)-one], the Ki under setting [1] is over 2970 nM. As to `Cc1nc2c(c(C)nn2CC(O)c2ccc(C(F)(F)F)cc2)c(=O)[nH]1` (centres unmarked) [Example 335, 1-(2-Hydroxy-2-(4-(trifluoromethyl)phenyl)ethyl)-3,6-dimethyl-1H-pyrazolo[3,4-d]pyrimidin-4(5H)-one], the Ki under setting [2] was over 1000 nM. For `Cc1nc2c(c(CS(C)(=O)=O)nn2C(C)c2ccc(C(F)(F)F)cc2)c(=O)[nH]1` (single isomer, unassigned) [Example 272], the Ki under setting [1] is 1210 nM. For the molecule `Cc1nc2c(c(CF)nn2C(c2ccc(C(F)(F)F)cc2)C2(C)CC2)c(=O)[nH]1` (single isomer, unassigned) [Example 208, (R)- or (S)-3-(Fluoromethyl)-6-methyl-1-((1-methylcyclopropyl)(4-(trifluoromethyl)phenyl)methyl)-1H-pyrazolo[3,4-d]pyrimidin-4(5H)-one], under setting [1], the Ki is 149 nM. Consider `COCCc1nc2c(c(C)nn2C(C)c2ccc(C(F)(F)F)cc2)c(=O)[nH]1` (centres unmarked) [Example 34, 6-(2-Methoxyethyl)-3-methyl-1-(1-(4-(trifluoromethyl)phenyl)ethyl)-1H-pyrazolo[3,4-d]pyrimidin-4(5H)-one], for which the inhibitory constant (Ki) under setting [2] was determined as 267 nM. Consider `CC(=O)OCc1nn(C(C)c2ccc(C(F)(F)F)cc2)c2nc(C)[nH]c(=O)c12` (centres unmarked) [Example 319, (6-Methyl-4-oxo-1-(1-(4-(trifluoromethyl)phenyl)ethyl)-4,5-dihydro-1H-pyrazolo[3,4-d]pyrimidin-3-yl)methyl acetate], for which, under setting [1], the Ki amounted to 283 nM. Same read-out and setting: for `Cc1nc2c(c(CF)nn2C(c2ccc(C(F)(F)F)cc2)C(C)(C)C)c(=O)[nH]1` (single isomer, unassigned) [Example 233, (R)- or (S)-1-(2,2-Dimethyl-1-(4-(trifluoromethyl)phenyl)propyl)-3-(fluoromethyl)-6-methyl-1H-pyrazolo[3,4-d]pyrimidin-4(5H)-one] the value was 678 nM.

For `Cc1nc2c(c(C)nn2C(C)C(=O)Nc2ccc(C(F)(F)F)cc2)c(=O)[nH]1` (centres unmarked) [Example 334, 2-(3,6-Dimethyl-4-oxo-4,5-dihydropyrazolo[3,4-d]pyrimidin-1-yl)-N-(4-(trifluoromethyl)phenyl)propanamide], under setting [2], the Ki was over 1000 nM.

For `Cc1nn(C(C)c2ccc(C(F)(F)F)cc2)c2nc(C3CCOCC3)[nH]c(=O)c12` (centres unmarked) [Example 55, 3-Methyl-6-(tetrahydro-2H-pyran-4-yl)-1-{1-[4-(trifluoromethyl)phenyl]ethyl}-1,5-dihydro-4H-pyrazolo[3,4-d]pyrimidin-4-one], the inhibition constant (Ki) under setting [2] was determined as 421 nM. Same read-out and setting: for `Cc1nc2c(c(C)nn2C(CCCc2ccccc2)c2sc(C)nc2C)c(=O)[nH]1` (centres unmarked) [Example 339, 1-[1-(2,4-dimethyl-1,3-thiazol-5-yl)-4-phenylbutyl]-3,6-dimethyl-1,5-dihydro-4H-pyrazolo[3,4-d]pyrimidin-4-one] the value was 292 nM. With `COCc1nc2c(c(CO)nn2C(C)c2ccc(C(F)(F)F)cc2)c(=O)[nH]1` (single isomer, unassigned) [Example 292], the Ki under setting [1] came to 473 nM.
